In US20180105561A1, “ANALOGS OF SODIUM CHANNEL PEPTIDE TOXIN” (priority 2010, published 2018):
Where a SMILES comes first, the peptide text is derived from it. Bridges are numbered along the chain shown (N, C = ends).

Assays:
Nav1.2 (rBIIa) = test: Sodium channel-blocking assay, Nav1.2 counter-screen; format: cell-based, rat; conditions: Table 3, natural toxins
human Nav1.7 = human Nav1.7 (Homo sapiens, UniProt Q15858); format: cell-based; conditions: Table 3, natural toxins
human Nav1.7, sequence (Q15858 other isoform, or with tags, fused parts or gaps): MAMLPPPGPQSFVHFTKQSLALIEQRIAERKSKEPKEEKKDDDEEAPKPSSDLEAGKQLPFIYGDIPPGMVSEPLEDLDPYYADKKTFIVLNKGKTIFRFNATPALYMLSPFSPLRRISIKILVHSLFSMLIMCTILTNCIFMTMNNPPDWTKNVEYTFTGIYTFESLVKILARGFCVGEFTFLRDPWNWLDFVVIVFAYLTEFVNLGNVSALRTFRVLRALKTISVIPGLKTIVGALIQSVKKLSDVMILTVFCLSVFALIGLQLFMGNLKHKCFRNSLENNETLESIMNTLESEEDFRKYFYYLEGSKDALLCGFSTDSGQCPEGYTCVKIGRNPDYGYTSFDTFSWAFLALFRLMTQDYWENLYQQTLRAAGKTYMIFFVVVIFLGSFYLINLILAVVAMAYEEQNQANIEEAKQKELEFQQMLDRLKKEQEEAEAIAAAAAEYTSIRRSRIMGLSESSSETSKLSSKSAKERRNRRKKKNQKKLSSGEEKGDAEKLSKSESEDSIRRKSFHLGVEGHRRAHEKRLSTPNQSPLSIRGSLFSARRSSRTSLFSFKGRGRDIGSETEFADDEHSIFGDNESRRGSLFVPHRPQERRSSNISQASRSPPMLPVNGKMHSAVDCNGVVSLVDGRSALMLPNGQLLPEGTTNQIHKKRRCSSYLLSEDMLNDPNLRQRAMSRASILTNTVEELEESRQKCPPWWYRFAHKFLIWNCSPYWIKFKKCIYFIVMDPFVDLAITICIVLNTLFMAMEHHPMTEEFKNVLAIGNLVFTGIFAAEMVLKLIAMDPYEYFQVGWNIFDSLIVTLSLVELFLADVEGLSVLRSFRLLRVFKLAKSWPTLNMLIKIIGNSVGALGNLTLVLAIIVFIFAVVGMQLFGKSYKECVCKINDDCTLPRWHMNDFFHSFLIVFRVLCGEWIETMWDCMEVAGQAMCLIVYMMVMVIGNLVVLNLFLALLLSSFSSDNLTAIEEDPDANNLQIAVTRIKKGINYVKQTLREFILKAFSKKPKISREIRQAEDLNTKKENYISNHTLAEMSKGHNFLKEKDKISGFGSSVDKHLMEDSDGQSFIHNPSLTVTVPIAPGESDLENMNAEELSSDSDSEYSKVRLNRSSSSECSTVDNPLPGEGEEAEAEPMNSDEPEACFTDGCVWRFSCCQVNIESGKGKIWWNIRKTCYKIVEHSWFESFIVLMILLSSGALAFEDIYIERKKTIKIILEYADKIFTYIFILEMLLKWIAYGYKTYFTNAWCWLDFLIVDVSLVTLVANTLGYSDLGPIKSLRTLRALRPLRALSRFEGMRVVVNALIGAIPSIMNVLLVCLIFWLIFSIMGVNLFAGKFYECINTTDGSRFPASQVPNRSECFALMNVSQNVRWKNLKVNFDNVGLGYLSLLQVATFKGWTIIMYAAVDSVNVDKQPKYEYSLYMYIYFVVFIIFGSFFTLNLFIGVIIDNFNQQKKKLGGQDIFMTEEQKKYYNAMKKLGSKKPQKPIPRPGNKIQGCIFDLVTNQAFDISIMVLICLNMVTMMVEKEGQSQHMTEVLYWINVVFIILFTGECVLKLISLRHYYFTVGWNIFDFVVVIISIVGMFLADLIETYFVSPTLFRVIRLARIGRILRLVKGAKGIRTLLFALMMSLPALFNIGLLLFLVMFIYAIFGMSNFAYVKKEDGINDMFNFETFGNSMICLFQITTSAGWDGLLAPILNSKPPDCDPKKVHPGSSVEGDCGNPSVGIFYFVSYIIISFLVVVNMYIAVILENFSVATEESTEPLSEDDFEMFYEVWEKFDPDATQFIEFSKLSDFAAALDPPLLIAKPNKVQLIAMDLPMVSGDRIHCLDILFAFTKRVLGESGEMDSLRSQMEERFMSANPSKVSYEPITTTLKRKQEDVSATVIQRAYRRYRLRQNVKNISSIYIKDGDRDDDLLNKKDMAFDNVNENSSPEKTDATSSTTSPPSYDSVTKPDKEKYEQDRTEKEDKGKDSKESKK

## CC[C@H](C)[C@H](NC(=O)[C@H](CCCCN)NC(=O)[C@H](CCCCN)NC(=O)[C@H](CCCCN)NC(=O)[C@@H]1CSSC[C@@H]2NC(=O)[C@H](CCCCN)NC(=O)[C@H](CCCNC(=N)N)NC(=O)[C@H](CCC(=O)O)NC(=O)[C@H](CCC(=O)O)NC(=O)[C@H](CC(=O)O)NC(=O)[C@@H]3CSSC[C@H](NC(=O)[C@H](C(C)C)NC(=O)[C@H](CC(C)C)NC(=O)CNC(=O)[C@H](CCC(=O)O)NC(=O)[C@H](CSSC[C@H](NC(=O)[C@@H](N)Cc4ccc(O)cc4)C(=O)N[C@@H](CCC(N)=O)C(=O)N[C@@H](CCCCN)C(=O)N[C@@H](Cc4c[nH]c5ccccc45)C(=O)N[C@@H](CCSC)C(=O)N[C@@H](Cc4c[nH]c5ccccc45)C(=O)N[C@@H]([C@@H](C)O)C(=O)N3)NC2=O)C(=O)N[C@@H](CCCNC(=N)N)C(=O)N[C@@H](CC(C)C)C(=O)N[C@@H](Cc2c[nH]c3ccccc23)C(=O)N1)C(=O)N[C@@H](CCC(=O)O)C(=O)N[C@@H](Cc1c[nH]c2ccccc12)C(=O)O [GsAF II] (H-YCQKWMWTCDEERKCCEGLVCRLWCKKKIEW-OH; disulfide 2-16, 9-21, 15-25)
Nav1.2 (rBIIa)
  IC50: 410 ± 20 nM
Human Nav1.7
  IC50: 70 ± 10 nM
